Data taken from US8906829B2, “Synergistic algicidal compositions including hydrazone derivatives and copper” (Dow AgroSciences LLC, priority 2010, dated 2014).
One block for each molecule: values may come before it.

What was measured:
[1] = test system: Synechocystis sp. strain 6803; experiment: Effect of copper on activity of hydrazones: in vitro growth inhibition of Synechocystis in BG-11 Cu minus / Cu plus medium (Example 11); format: cell-based; details: 72 h; for % Inhn. Plus Copper Observed: BG-11 Cu plus medium
Experimental: In vitro toxicity assays against the cyanobacterium (blue-green alga) Synechocystis sp. strain 6803 were conducted using BG-11 medium except that copper micronutrient, normally included as CuSO4.5H2O, was omitted. The medium, termed BG-11 Cu minus, was prepared by dissolving 1.5 g NaNO3, 40 mg K2HPO4, 6 mg citric acid, 1 mg Na2EDTA and 20 mg Na2CO3 in 1 liter of milli Q water and treating the solution with 0.5 g Chelex 100 resin (Bio-Rad Analytical grade, 50-100 mesh, sodium form, cat#142-2822) by stifling at room temperature for 1 h. 900 mL were decanted and 67.5 mg MgSO4.7H2O, 32.4 mg […], 5.4 mg ferric ammonium citrate and 0.9 mL trace metal mix A5 without copper (2.86 g H3BO3, 1.81 g MnCl2.4H2O, 222 mg ZnSO4.7H2O, 390 mg Na2MoO4.2H2O and Co(NO3)2.6H2O in 1 L Milli Q water) was added. The pH was adjusted to 7.1 and the medium was filter-sterilized. Medium containing copper (BG-11 Cu plus) was prepared by adding CuCl2.2H2O to the BG-11 Cu minus medium at 0.2 μM. Test compounds were dissolved in dimethylsulfoxide (DMSO) at 2 mg/mL then appropriate dilutions in BG-11 Cu minus and BG-11 Cu plus media were prepared in sterilized microcentrifuge tubes. 100 μL aliquots were dispensed into flat-bottomed 96-well microtiter plates. Synechocystis was maintained under 24 h of light on BG-11 agar plates at 27° C. A loopful of cells was added to 50 mL of BG-11 Cu minus growth medium and the culture was incubated with shaking at 200 rpm at 27° C. for 24 h. The culture (10 to 20 mL aliquot) was centrifuged in a bench centrifuge at 2400 rpm for 2 min. The resulting cell pellet was resuspended in 5 mL sterile milli Q water (which had been treated with Chelex 100 resin using 0.5 g resin per liter of water by stirring at room temperature for 1 h), and recentrifuged. The cells were resuspended in BG-11 Cu minus medium, and the suspension adjusted to 4×10^5 spores per mL. Microtiter plates containing compounds as described above were inoculated with 100 μL of this cell suspension and the plates incubated at 27° C. for 72 h before assessing algal growth by measuring light scattering in a NepheloStar plate reader. Growth inhibition was determined by comparing growth in the presence of test compound with growth in control wells lacking test compound. Results for growth inhibition by test compounds in BG-11 Cu plus medium (% Inhn Plus Copper Observed) were compared with predicted values (% Inhn Plus Copper Predicted) that were calculated using the formula set forth by S. R. Colby in Weeds 1967, 15, 20-22 based on-results obtained for the same compounds in BG-11 Cu minus medium (% Inhn Minus Copper Observed) and the inhibition attributed to copper chloride alone, as determined by comparing growth in copper-minus and copper-plus media without any test compound across experiments. Results illustrate that hydrazones and copper produce a synergistic algicidal effect towards Synechocystis.

C. reinhardtii CC-1928 = experiment: Effect of copper on activity of hydrazones: in vitro growth inhibition of C. reinhardtii in TAP Cu minus / TAP Cu plus medium (Example 10); format: cell-based, Chlamydomonas reinhardtii; details: test compound 1 μg/mL, 48 h; for inhibition of growth at 1 µg/mL: Chlamydomonas reinhardtii, TAP Cu minus medium, read-out: % Inhn. Minus Copper Observed; for % Inhn. Plus Copper Observed: TAP Cu plus medium (CuCl2)
Experimental: In vitro toxicity assays against C. reinhardtii CC-1928 (wild type mt+137c green in dark subclone) obtained from the Chlamydomonas Resource Center at Duke University were conducted using TAP liquid growth medium described by Gorman and Levine Proc. Natl. Acad. Sci. USA 1965, 54, 1665-1669 except that CuSO4.5H2O, normally included as a component of Hutner's trace element stock solution (Hutner et al. Proc. Am. Philos. Soc. 1950, 94, 152-170), was omitted. The TAP medium lacking Cu (TAP Cu minus) was prepared by adding 400 mg NH4Cl, 10 mL of 100× Tris-Acetate (242 g Tris-base and 100 mL glacial acetic acid in 1000 mL milli Q water), and 8.3 mL of 120.5× phosphate buffer (14.34 g K2HPO4 and 7.26 g KH2PO4 in 1000 mL milli Q water) to milli Q water to make a total volume of 1 liter. The medium was treated with 0.5 g Chelex 100 resin (Bio-Rad Analytical grade, 50-100 mesh, sodium form, cat#142-2822) by stirring at room temperature for 1 hour. 900 mL were decanted and 45.9 mg of CaCl2.2H2O, 90 mg of MgSO4.7H2O and 0.9 mL Hutner's trace elements lacking CuSO4.5H2O were added and the solution was filter-sterilized. Medium containing copper (TAP Cu plus) was prepared by adding CuCl2.2H2O to the TAP Cu minus medium at 20 μM. Test compounds were dissolved in dimethylsulfoxide (DMSO) at 2 mg/mL then dilutions in TAP Cu minus and TAP Cu plus media were prepared in sterilized microcentrifuge tubes at 2 μg/mL. 100 μL aliquots of diluted compound were dispensed into flat-bottomed 96-well microtiter plates. C. reinhardtii was maintained under 12 h of light on TAP agar plates at 18° C. A loopful of cells was added to 50 mL of TAP Cu minus medium and the culture incubated with shaking at 200 rpm at 27° C. for 24 h. The culture (10 to 20 mL aliquot) was centrifuged in a bench centrifuge at 2000 rpm for 2 min. The resulting cell pellet was resuspended in 5 mL sterile milli Q water (which had been treated with Chelex 100 resin using 0.5 g resin per liter of water by stirring at room temperature for 1 h), and recentrifuged. The cells were resuspended in TAP Cu minus medium, and the suspension adjusted to 2×10^5 spores per mL. Microtiter plates containing compounds as described above were inoculated with 100 μL of this cell suspension and the plates incubated at 27° C. for 48 h before assessing algal growth by measuring light scattering in a NepheloStar plate-reader. Growth inhibition was determined by comparing growth in the presence of test compound with growth in control wells lacking test compound. Results for growth inhibition by test compounds at 1 μg/mL in TAP Cu plus medium (% Inhn Plus Copper Observed) were compared with predicted values (% Inhn Plus Copper Predicted) that were calculated using the formula set forth by S. R. Colby in Weeds 1967, 15, 20-22 based on results obtained for the same compounds in TAP Cu minus medium (% Inhn Minus Copper Observed). […] Results illustrate that hydrazones and copper produce a synergistic algicidal effect towards C. reinhardtii.

[2] = Synechocystis, Test Concn. 0.05 μg/mL, BG-11 Cu minus medium, read-out: % Inhn. Minus Copper Observed
[3] = Synechocystis, Test Concn. 0.0125 μg/mL, BG-11 Cu minus medium, read-out: % Inhn. Minus Copper Observed

Structure (SMILES): O=C(N/N=C/c1cc(C(F)(F)F)cc(Cl)c1O)c1ccccc1 [Compound 24]
inhibition of growth at 0.05 µg/mL [1, 2]: 45%
% Inhn. Plus Copper Observed ([1]; Test Concn. 0.05 μg/mL): 93%
inhibition of growth at 1 µg/mL (C. reinhardtii CC-1928): -2%
% Inhn. Plus Copper Observed (C. reinhardtii CC-1928): 90%
melting point: 216 to 222 °C

Structure (SMILES): O=C(N/N=C/c1cc(C(F)(F)F)cc(Cl)c1O)c1cccc(F)c1 [Compound 28]
inhibition of growth at 0.05 µg/mL [1, 2]: 13%
% Inhn. Plus Copper Observed ([1]; Test Concn. 0.05 μg/mL): 96%
inhibition of growth at 1 µg/mL (C. reinhardtii CC-1928): 12%
% Inhn. Plus Copper Observed (C. reinhardtii CC-1928): 97%
melting point: 210 to 212 °C

Structure (SMILES): O=C(N/N=C/c1cc(C(F)(F)F)cc(Cl)c1O)c1ccc(F)cc1 [Compound 29]
inhibition of growth at 0.05 µg/mL [1, 2]: 11%
% Inhn. Plus Copper Observed ([1]; Test Concn. 0.05 μg/mL): 96%
inhibition of growth at 1 µg/mL (C. reinhardtii CC-1928): 16%
% Inhn. Plus Copper Observed (C. reinhardtii CC-1928): 96%
melting point: 200 to 202 °C

Structure (SMILES): O=C(N/N=C/c1cc(C(F)(F)F)cc(Cl)c1O)c1ccccc1O [Compound 30]
inhibition of growth at 0.05 µg/mL [1, 2]: 0%
% Inhn. Plus Copper Observed ([1]; Test Concn. 0.05 μg/mL): 92%
inhibition of growth at 1 µg/mL (C. reinhardtii CC-1928): 29%
% Inhn. Plus Copper Observed (C. reinhardtii CC-1928): 92%
melting point: 258 to 260 °C

Structure (SMILES): Cc1ccc(C(=O)N/N=C/c2cc(C(F)(F)F)cc(Cl)c2O)c(O)c1 [Compound 31]
inhibition of growth at 0.05 µg/mL [1, 2]: 38%
% Inhn. Plus Copper Observed ([1]; Test Concn. 0.05 μg/mL): 92%
inhibition of growth at 1 µg/mL (C. reinhardtii CC-1928): -1%
% Inhn. Plus Copper Observed (C. reinhardtii CC-1928): 88%
melting point: 255 to 257 °C

Structure (SMILES): Cc1cccc(C(=O)N/N=C/c2cccc(C(F)(F)F)c2O)c1 [Compound 33]
inhibition of growth at 0.05 µg/mL [1, 2]: 29%
% Inhn. Plus Copper Observed ([1]; Test Concn. 0.05 μg/mL): 97%
inhibition of growth at 1 µg/mL (C. reinhardtii CC-1928): 21%
% Inhn. Plus Copper Observed (C. reinhardtii CC-1928): 97%
melting point: 188 to 190 °C

Structure (SMILES): O=C(N/N=C/c1cccc(C(F)(F)F)c1O)c1cccc(F)c1 [Compound 34]
inhibition of growth at 0.05 µg/mL [1, 2]: 34%
% Inhn. Plus Copper Observed ([1]; Test Concn. 0.05 μg/mL): 91%
inhibition of growth at 1 µg/mL (C. reinhardtii CC-1928): 8%
% Inhn. Plus Copper Observed (C. reinhardtii CC-1928): 97%
melting point: 176 to 180 °C

More lines, main results first:

melting point: 215 to 216 °C
Structure (SMILES): O=C(N/N=C/c1cccc(C(F)(F)F)c1O)c1ccc(Cl)cc1 [Compound 35]
inhibition of growth at 0.05 µg/mL [1, 2]: 26%
% Inhn. Plus Copper Observed ([1]; Test Concn. 0.05 μg/mL): 91%
inhibition of growth at 1 µg/mL (C. reinhardtii CC-1928): 9%
% Inhn. Plus Copper Observed (C. reinhardtii CC-1928): 97%

melting point: 230 to 234 °C
Structure (SMILES): O=C(N/N=C/c1cccc(C(F)(F)F)c1O)c1ccccc1O [Compound 36]
inhibition of growth at 0.0125 µg/mL [1, 3]: 28%
% Inhn. Plus Copper Observed ([1]; Test Concn. 0.0125 μg/mL): 87%
inhibition of growth at 1 µg/mL (C. reinhardtii CC-1928): 7%
% Inhn. Plus Copper Observed (C. reinhardtii CC-1928): 96%

melting point: 248 to 253 °C
Structure (SMILES): Cc1ccc(C(=O)N/N=C/c2cccc(C(F)(F)F)c2O)c(O)c1 [Compound 37]
inhibition of growth at 0.0125 µg/mL [1, 3]: 44%
% Inhn. Plus Copper Observed ([1]; Test Concn. 0.0125 μg/mL): 88%
inhibition of growth at 1 µg/mL (C. reinhardtii CC-1928): 12%
% Inhn. Plus Copper Observed (C. reinhardtii CC-1928): 97%

melting point: 212 to 214 °C
Structure (SMILES): Cc1cccc(C(=O)N/N=C/c2ccc(Cl)c(Cl)c2O)c1 [Compound 38]
inhibition of growth at 0.05 µg/mL [1, 2]: 49%
% Inhn. Plus Copper Observed ([1]; Test Concn. 0.05 μg/mL): 93%
inhibition of growth at 1 µg/mL (C. reinhardtii CC-1928): 15%
% Inhn. Plus Copper Observed (C. reinhardtii CC-1928): 94%

melting point: 215 to 218 °C
Structure (SMILES): O=C(N/N=C/c1ccc(Cl)c(Cl)c1O)c1cccc(F)c1 [Compound 39]
inhibition of growth at 0.05 µg/mL [1, 2]: 31%
% Inhn. Plus Copper Observed ([1]; Test Concn. 0.05 μg/mL): 92%
inhibition of growth at 1 µg/mL (C. reinhardtii CC-1928): 8%
% Inhn. Plus Copper Observed (C. reinhardtii CC-1928): 91%

melting point: 219 to 222 °C
Structure (SMILES): O=C(N/N=C/c1ccc(Cl)c(Cl)c1O)c1cccc(Cl)c1 [Compound 40]
inhibition of growth at 0.00625 µg/mL ([1]; Synechocystis, Test Concn. 0.00625 μg/mL, BG-11 Cu minus medium, read-out: % Inhn. Minus Copper Observed): 4%
% Inhn. Plus Copper Observed ([1]; Test Concn. 0.00625 μg/mL): 64%
inhibition of growth at 1 µg/mL (C. reinhardtii CC-1928): 22%
% Inhn. Plus Copper Observed (C. reinhardtii CC-1928): 96%

melting point: 271 to 278 °C
Structure (SMILES): Cc1ccc(C(=O)N/N=C/c2ccc(Cl)c(Cl)c2O)c(O)c1 [Compound 41]
inhibition of growth at 0.0125 µg/mL [1, 3]: 26%
% Inhn. Plus Copper Observed ([1]; Test Concn. 0.0125 μg/mL): 93%
inhibition of growth at 1 µg/mL (C. reinhardtii CC-1928): 28%
% Inhn. Plus Copper Observed (C. reinhardtii CC-1928): 96%

melting point: 214 to 216 °C
Structure (SMILES): Cc1cccc(C(=O)N/N=C/c2c(Cl)ccc(Cl)c2O)c1 [Compound 42]
inhibition of growth at 0.05 µg/mL [1, 2]: 10%
% Inhn. Plus Copper Observed ([1]; Test Concn. 0.05 μg/mL): 94%
inhibition of growth at 1 µg/mL (C. reinhardtii CC-1928): 10%
% Inhn. Plus Copper Observed (C. reinhardtii CC-1928): 96%

melting point: 264 to 267 °C
Structure (SMILES): O=C(N/N=C/c1c(Cl)ccc(Cl)c1O)c1ccc(F)cc1 [Compound 43]
inhibition of growth at 0.05 µg/mL [1, 2]: 23%
% Inhn. Plus Copper Observed ([1]; Test Concn. 0.05 μg/mL): 95%
inhibition of growth at 1 µg/mL (C. reinhardtii CC-1928): 9%
% Inhn. Plus Copper Observed (C. reinhardtii CC-1928): 93%
